# Results reported in US8563542B2 (Cyclacel Limited, priority 2007, dated 2013).
# Counter-ions that a name gives are not always drawn.
# Target: PLK1 (Homo sapiens, UniProt P53350)
# Assay: PLK1 protein kinase assay (CDC25C phosphorylation, [γ-32P]-ATP)
# Type: biochemical
# Conditions: Table 1; read-out: PLK1 IC50
# PLK1, sequence (P53350 whole entry): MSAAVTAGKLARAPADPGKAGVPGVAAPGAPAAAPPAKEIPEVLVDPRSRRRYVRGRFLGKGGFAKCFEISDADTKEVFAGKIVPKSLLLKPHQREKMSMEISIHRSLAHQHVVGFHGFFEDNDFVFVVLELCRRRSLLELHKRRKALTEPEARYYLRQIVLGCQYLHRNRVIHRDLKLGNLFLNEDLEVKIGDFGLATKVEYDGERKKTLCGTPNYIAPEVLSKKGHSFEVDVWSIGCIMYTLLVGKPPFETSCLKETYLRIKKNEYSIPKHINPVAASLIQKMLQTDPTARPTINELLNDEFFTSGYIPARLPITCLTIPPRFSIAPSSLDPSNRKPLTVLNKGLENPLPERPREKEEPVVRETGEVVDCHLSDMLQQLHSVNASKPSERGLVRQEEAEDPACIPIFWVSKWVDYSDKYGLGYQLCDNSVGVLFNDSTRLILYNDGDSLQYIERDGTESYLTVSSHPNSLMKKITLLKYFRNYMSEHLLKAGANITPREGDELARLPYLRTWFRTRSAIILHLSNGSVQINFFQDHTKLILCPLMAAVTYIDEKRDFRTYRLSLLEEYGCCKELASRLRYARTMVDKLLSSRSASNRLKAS
row,IC50,Structure (SMILES)
1,< 10000 nM,"COc1cc(C(=O)O)ccc1Nc1ncc2c(n1)N(C1CCCC1)C(C)CC(=O)N2 (stereo not drawn) [compound 3, 4-(9-Cyclopentyl-8-methyl-6-oxo-6,7,8,9-tetrahydro-5H-pyrimido[4,5-b][1,4]diazepin-2-ylamino)-3-methoxy-benzoic acid]"
2,< 10000 nM,"COc1cc(C(=O)O)ccc1Nc1ncc2c(n1)N(C1CCCC1)C(C)CC(=O)N2C (stereo not drawn) [compound 4, 4-(9-Cyclopentyl-5,8-dimethyl-6-oxo-6,7,8,9-tetrahydro-5H-pyrimido[4,5-b][1,4]diazepin-2-ylamino)-3-methoxy-benzoic acid]"
3,< 10000 nM,"COc1cc(C(=O)O)ccc1Nc1ncc2c(n1)N(C1CCCCC1)C(C)CC(=O)N2 (stereo not drawn) [compound 5, 4-(9-Cyclohexyl-8-methyl-6-oxo-6,7,8,9-tetrahydro-5H-pyrimido[4,5-b][1,4]diazepin-2-ylamino)-3-methoxy-benzoic acid]"

# Same assay, conditions: Table 3; read-out: PLK1 IC50
row,IC50,Structure (SMILES)
1,100 to 1000 nM,"COc1cc(C(=O)N[C@H]2CC[C@@H](N3CCN(Cc4ccccc4)CC3)CC2)ccc1Nc1ncc2c(n1)N(C1CCCC1)CC1(CC1)C(=O)N2C [Compound 387, N-((cis)-4-(4-benzylpiperazin-1-yl)cyclohexyl)-4-(9′-cyclopentyl-5′-methyl-6′-oxo-5′,6′,8′,9′-tetrahydrospiro[cyclopropane-1,7′-pyrimido[4,5-b][1,4]diazepine]-2′-ylamino)-3-methoxybenzamide]"
2,< 100 nM,"COc1cc(C(=O)N[C@H]2CC[C@H](N3CCOCC3)CC2)ccc1Nc1ncc2c(n1)N(C1CCCC1)CC(C)(C)C(=O)N2C [Compound 388, 4-(9-cyclopentyl-5,7,7-trimethyl-6-oxo-6,7,8,9-tetrahydro-5H-pyrimido[4,5-b][1,4]diazepin-2-ylamino)-3-methoxy-N-((trans)-4-morpholinocyclohexyl)benzamide]"
3,100 to 1000 nM,"COc1cc(C(=O)N[C@H]2CC[C@@H](N3CCOCC3)CC2)ccc1Nc1ncc2c(n1)N(C1CCCC1)CC(C)(C)C(=O)N2C [Compound 389, 4-(9-cyclopentyl-5,7,7-trimethyl-6-oxo-6,7,8,9-tetrahydro-5H-pyrimido[4,5-b][1,4]diazepin-2-ylamino)-3-methoxy-N-((cis)-4-morpholinocyclohexyl)benzamide]"
4,< 100 nM,"COc1cc(C(=O)N[C@H]2CC[C@H](N3CCOCC3)CC2)ccc1Nc1ncc2c(n1)N(C1CCCC1)CC1(CC1)C(=O)N2C [Compound 390, 4-(9′-cyclopentyl-5′-methyl-6′-oxo-5′,6′,8′,9′-tetrahydrospiro[cyclopropane-1,7′-pyrimido[4,5-b][1,4]diazepine]-2′-ylamino)-3-methoxy-N-((trans)-4-morpholinocyclohexyl)benzamide]"
5,< 100 nM,"COc1cc(C(=O)N[C@H]2CC[C@@H](N3CCOCC3)CC2)ccc1Nc1ncc2c(n1)N(C1CCCC1)CC1(CC1)C(=O)N2C [Compound 391, 4-(9′-cyclopentyl-5′-methyl-6′-oxo-5′,6′,8′,9′-tetrahydrospiro[cyclopropane-1,7′-pyrimido[4,5-b][1,4]diazepine]-2′-ylamino)-3-methoxy-N-((cis)-4-morpholinocyclohexyl)benzamide]"

# Same assay, conditions: Table 4; read-out: PLK1 IC50
row,Structure (SMILES),IC50
1,"COc1cc(C(=O)NC2CCN(C)CC2)ccc1Nc1ncc2c(n1)N(C1CCCC1)CC1(CCC1)C(=O)N2C [WO 2007/095188 [I-64], reference compound]",< 100 nM
2,"COc1cc(C(=O)NC2CCN(C)CC2)ccc1Nc1ncc2c(n1)N(C1CCCC1)CC1(CC1)C(=O)N2C [WO 2007/095188 [I-76], reference compound]",< 100 nM

# Same assay, conditions: Table 6
row,Structure (SMILES),Ki
1,"COc1cc(C(=O)NN2CCCC2)ccc1Nc1ncc2c(n1)N(C1CCCC1)CC1(CC1)C(=O)N2C [Example [I-253] of WO 07/095188, reference compound]",< 10 nM
2,"COc1cc(C(=O)NN2CCN(C)CC2)ccc1Nc1ncc2c(n1)N(C1CCCC1)CC1(CC1)C(=O)N2C [[254]•HCl, 4-(9′-cyclopentyl-5′-methyl-6′-oxo-5′,6′,8′,9′-tetrahydrospiro[cyclopropane-1,7′-pyrimido[4,5-b][1,4]diazepine]-2′-ylamino)-3-methoxy-N-(4-methylpiperazin-1-yl)benzamide.HCl]",< 10 nM
